Experimental data taken from patent publication US12624034B2, “Non-covalent modifiers of AKT1 and uses thereof” (Terremoto Biosciences, Inc., priority 2023, dated 2026).
Where two headings read alike, the source gives them in different places.

What was measured:
[1] = target: T1, AKT1 WT (Homo sapiens, UniProt P31749); assay: Live cell AKT1 WT target engagement by NanoBRET competitive probe displacement in HEK293 cells; assay type: binding; settings: 2 h at 37° C., read-out: AKT1 WT IC50
T1 construct: expressed in transfected cells; host or cells: HEK293

[2] = tested on: LAPC4 prostate cancer cells, which express the AKT1 E17K allele; assay: Antiproliferative effects in LAPC4 cells (CellTiter Glo, 72 h); assay type: cell-based; settings: Homo sapiens, LAPC4, 72 h, read-out: LAPC4 proliferation IC50
Procedure: Antiproliferative Effects in LAPC4 Cells.
LAPC4 prostate cancer cells (Klein, K. A. et al. Nat Med 1997, 3, 402-408), which express the AKT1 E17K allele, were grown in IMDM media (Hyclone) supplemented with 12% FBS+1% P/S. To assess compound effects on growth, 1,000 cells/well were seeded in 384 well assay plates, incubated with compound dilutions dissolved in DMSO. After 72 h, intracellular ATP content was assessed with CellTiter Glo reagent (Promega) according to the manufacturer's instructions. IC50 values were calculated by fitting luminescence values to a log(inhibitor) vs. response Hill equation.

[3] = target: T2, AKT2 (Homo sapiens, UniProt P31751); assay: Live cell AKT2 target engagement by NanoBRET competitive probe displacement in HEK293 cells; assay type: binding; settings: 2 h at 37° C., read-out: AKT2 IC50
T2 construct: expressed in transfected cells; host or cells: HEK293

[4] = target: T3, AKT1 E17K (Homo sapiens, UniProt P31749, E17K); assay: Live cell AKT1 E17K target engagement by NanoBRET competitive probe displacement in HEK293 cells; assay type: binding; settings: 2 h at 37° C.
T3 construct: expressed in transfected cells; host or cells: HEK293
Procedure: Determining live cell AKT1 E17K, AKT1 WT, and AKT2 target engagement by NanoBRET competitive probe displacement. Live cell target engagement assays were performed as described (Vasta, J. D. et al. Cell Chem Biol 2018, 25(11), 206-214). Briefly, HEK293 cells were transfected with plasmids encoding kinase-NanoLuciferase fusion proteins overnight. Cells were then treated with serial dilutions of compound and an ˜EC50 concentration of fluorescently-tagged ATP-competitive tracer (Promega). After incubation for 2 h at 37° C., luciferase substrate and extracellular luciferase inhibitor were added to all wells, and luminescent intensity at 460 nm and 600 nm were measured on a multimode plate-reader. The ratio of E600/E460 was calculated to give the tracer engagement signal (BRET). IC50 values were calculated by fitting BRET values to a log(inhibitor) vs. response Hill equation.

[5] = NanoBRET live cell target engagement, HEK293 cells
[6] = NanoBRET competitive probe displacement, live HEK293 cells

T1 sequence (P31749 whole entry): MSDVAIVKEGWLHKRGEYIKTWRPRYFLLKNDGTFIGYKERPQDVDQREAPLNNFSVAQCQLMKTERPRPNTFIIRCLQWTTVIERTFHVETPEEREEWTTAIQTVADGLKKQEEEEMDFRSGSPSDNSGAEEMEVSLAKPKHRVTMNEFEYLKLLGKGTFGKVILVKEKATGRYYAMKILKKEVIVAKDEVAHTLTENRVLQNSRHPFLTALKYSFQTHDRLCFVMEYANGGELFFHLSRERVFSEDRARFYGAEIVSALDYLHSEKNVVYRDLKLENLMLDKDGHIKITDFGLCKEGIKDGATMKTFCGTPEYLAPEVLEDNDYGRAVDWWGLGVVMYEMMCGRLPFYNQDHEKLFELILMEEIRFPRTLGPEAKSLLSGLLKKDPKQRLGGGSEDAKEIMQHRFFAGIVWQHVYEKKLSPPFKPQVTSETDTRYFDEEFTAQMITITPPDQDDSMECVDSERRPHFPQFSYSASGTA
T3 sequence (P31749 whole entry E17K): as the sequence (P31749 whole entry) above, with E17K counted along it
T2 sequence (P31751 whole entry): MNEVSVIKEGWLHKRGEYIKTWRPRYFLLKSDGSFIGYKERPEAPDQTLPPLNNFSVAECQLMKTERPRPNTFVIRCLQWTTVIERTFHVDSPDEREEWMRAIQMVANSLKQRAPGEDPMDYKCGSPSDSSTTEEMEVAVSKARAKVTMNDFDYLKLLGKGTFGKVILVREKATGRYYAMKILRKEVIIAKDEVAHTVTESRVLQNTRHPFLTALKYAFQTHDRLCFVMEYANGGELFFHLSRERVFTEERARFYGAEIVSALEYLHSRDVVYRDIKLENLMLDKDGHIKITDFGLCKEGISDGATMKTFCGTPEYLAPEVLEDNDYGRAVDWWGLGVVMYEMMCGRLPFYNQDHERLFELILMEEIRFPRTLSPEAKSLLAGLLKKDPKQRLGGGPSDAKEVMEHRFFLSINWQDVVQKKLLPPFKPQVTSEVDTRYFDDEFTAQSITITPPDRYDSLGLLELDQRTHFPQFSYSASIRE

Row | Structure (SMILES) | IC50 [1, 5] [nM] | IC50 [2] [nM] | IC50 [3, 5] [nM] | IC50 [4, 5] [nM] | IC50 [1, 6] [nM] | IC50 [3, 6] [nM] | IC50 [4, 6] [nM]
1 | Nc1ncccc1-c1nc2ccc(-n3cccn3)nc2n1-c1ccc2c(c1)CC[C@@H]2NC1CCN(C(=O)C2CC2)CC1 [Compound 279] | 45.4 | 9360 | 2400 | > 1000 | – | – | –
2 | Nc1ncccc1-c1nc2ccc(-n3cccn3)nc2n1-c1ccc2c(c1)CC[C@@H]2N [Example 2, (S)-3-(3-(1-amino-2,3-dihydro-1H-inden-5-yl)-5-(1H-pyrazol-1-yl)-3H-imidazo[4,5-b]pyridin-2-yl)pyridin-2-amine] | 61.9 | 8980 | 858 | > 1000 | – | – | –
3 | Cn1ccc(N2CCC(N[C@H]3CCc4cc(-n5c(-c6cccnc6N)nc6ccc(-n7cccn7)nc65)ccc43)CC2)n1 [Compound 276] | 47.4 | > 10000 | 1200 | > 1000 | – | – | –
4 | Nc1ncccc1-c1nc2ccc(-n3cccn3)nc2n1-c1ccc2c(c1)CC[C@@H]2NC(=O)c1cc[nH]c(=O)c1 [Compound 318] | 149 | 3600 | 931 | 181 | – | – | –
5 | O=C(N[C@H]1CCc2cc(-n3c(-c4ccccc4)nc4ccc(-c5ccn(C6CC6)n5)nc43)ccc21)c1ccc(C(F)F)nc1 [Compound 432] | – | 3500 | – | – | 14.6 | 1450 | 145
6 | Nc1ncccc1-c1nc2ccc(-n3cccn3)nc2n1-c1ccc2c(c1)CC[C@@H]2NC(=O)Cc1ccn[nH]1 [Compound 51, (S)—N-(5-(2-(2-aminopyridin-3-yl)-5-(1H-pyrazol-1-yl)-3H-imidazo[4,5-b]pyridin-3-yl)-2,3-dihydro-1H-inden-1-yl)-2-(1H-pyrazol-5-yl)acetamide] | 137 | > 10000 | 4560 | > 1000 | – | – | –
7 | Nc1ncccc1-c1nc2ccc(-n3cccn3)nc2n1-c1ccc2c(c1)CC[C@@H]2NC(=O)C1CC1 [Compound 37, N-[(1S)-5-[2-(2-aminopyridin-3-yl)-5-(pyrazol-1-yl)imidazo[4,5-b]pyridin-3-yl]-2,3-dihydro-1H-inden-1-yl]cyclopropanecarboxamide] | 175 | > 10000 | 7720 | > 1000 | – | – | –
8 | CCOC(=O)N1CCC(N[C@H]2CCc3cc(-n4c(-c5cccnc5N)nc5ccc(-n6cccn6)nc54)ccc32)CC1 [Compound 289] | 69.9 | 4780 | 2990 | 283 | – | – | –
9 | CN1CCC(N[C@H]2CCc3cc(-n4c(-c5cccnc5N)nc5ccc(-n6cccn6)nc54)ccc32)CC1 [Compound 274] | 593 | > 10000 | 5000 | > 1000 | – | – | –
10 | Cn1cc(C(=O)N[C@H]2CCc3cc(-n4c(-c5cccnc5N)nc5ccc(-n6cccn6)nc54)ccc32)cn1 [Compound 39, (S)—N-(5-(2-(2-aminopyridin-3-yl)-5-(1H-pyrazol-1-yl)-3H-imidazo[4,5-b]pyridin-3-yl)-2,3-dihydro-1H-inden-1-yl)-1-methyl-1H-pyrazole-4-carboxamide] | 49.2 | 5190 | 754 | 211 | – | – | –
11 | Nc1ncccc1-c1nc2ccc(-n3cccn3)nc2n1-c1ccc2c(c1)CC[C@@H]2NC(=O)Cc1cccnc1 [Compound 48, (S)—N-(5-(2-(2-aminopyridin-3-yl)-5-(1H-pyrazol-1-yl)-3H-imidazo[4,5-b]pyridin-3-yl)-2,3-dihydro-1H-inden-1-yl)-2-(pyridin-3-yl)acetamide] | 155 | > 10000 | 2850 | > 1000 | – | – | –
12 | Nc1ncccc1-c1nc2ccc(-n3cccn3)nc2n1-c1ccc2c(c1)CC[C@@H]2NC(=O)Cc1ccncc1 [Compound 49, N-[(1S)-5-[2-(2-aminopyridin-3-yl)-5-(pyrazol-1-yl)imidazo[4,5-b]pyridin-3-yl]-2,3-dihydro-1H-inden-1-yl]-2-(pyridin-4-yl)acetamide] | 199 | > 10000 | 2840 | > 1000 | – | – | –

The next molecules have a lower IC50 [2] than those just listed; values first:

Row | IC50 [1, 5] [nM] | IC50 [2] [nM] | IC50 [3, 5] [nM] | IC50 [4, 5] [nM] | IC50 [1, 6] [nM] | IC50 [3, 6] [nM] | IC50 [4, 6] [nM] | Structure (SMILES)
13 | – | 3000 | – | – | 7.99 | 477 | 53.3 | COc1cc(C(=O)N[C@H]2CCc3cc(-n4c(-c5ccccc5F)nc5ccc(-n6cccn6)nc54)ccc32)ccn1 [Compound 402]
14 | 16.8 | 2770 | 74.4 | 734 | – | – | – | COc1nccc(C(=O)N[C@H]2CCc3cc(-n4c(-c5cccnc5N)nc5ccc(-n6cccn6)nc54)ccc32)c1OC [Compound 355]
15 | – | 2730 | – | – | 15 | 656 | 177 | Nc1ncccc1-c1nc2ccc(-n3cccn3)nc2n1-c1ccc2c(c1)CC[C@@H]2NC(=O)c1cnns1 [Compound 399]
16 | 5.86 | 1310 | 68.9 | 84.2 | – | – | – | Nc1ncccc1-c1nc2ccc(-n3cccn3)nc2n1-c1ccc2c(c1)CC[C@@H]2NC(=O)c1ccnc2occc12 [Compound 282]
17 | 10.9 | 1280 | 449 | 5.8 | – | – | – | Nc1ncccc1-c1nc2ccc(-n3cccn3)nc2n1-c1ccc2c(c1)CC[C@@H]2n1cc(C2CC2)nn1 [Compound 221]
18 | 11.2 | 1260 | 67.6 | 31.9 | – | – | – | Nc1ncccc1-c1nc2ccc(-n3cccn3)nc2n1-c1ccc2c(c1)CC[C@@H]2NC(=O)c1ccc2[nH]cnc2c1 [Compound 22, (S)—N-(5-(2-(2-aminopyridin-3-yl)-5-(1H-pyrazol-1-yl)-3H-imidazo[4,5-b]pyridin-3-yl)-2,3-dihydro-1H-inden-1-yl)-1H-benzo[d]imidazole-5-carboxamide]
19 | 6.36 | 1170 | 57.4 | 30.1 | – | – | – | N#Cc1ccc(C(=O)N[C@H]2CCc3cc(-n4c(-c5cccnc5N)nc5ccc(-n6cccn6)nc54)ccc32)cc1 [Compound 41, N-[(1S)-5-[2-(2-aminopyridin-3-yl)-5-(pyrazol-1-yl)imidazo[4,5-b]pyridin-3-yl]-2,3-dihydro-1H-inden-1-yl]-4-cyanobenzamide]
20 | 14.1 | 1160 | 139 | 44.2 | – | – | – | Nc1ncccc1-c1nc2ccc(-n3cccn3)nc2n1-c1ccc2c(c1)CC[C@@H]2NC(=O)c1ccccc1 [Compound 43, (S)—N-(5-(2-(2-aminopyridin-3-yl)-5-(1H-pyrazol-1-yl)-3H-imidazo[4,5-b]pyridin-3-yl)-2,3-dihydro-1H-inden-1-yl)benzamide]
21 | 18.1 | 1120 | 118 | 142 | – | – | – | Nc1ncccc1-c1nc2ccc(-n3ccc(F)n3)nc2n1-c1ccc2c(c1)CC[C@@H]2NC(=O)c1ccc(C(F)F)nc1 [Compound 53, (S)—N-(5-(2-(2-aminopyridin-3-yl)-5-(3-fluoro-1H-pyrazol-1-yl)-3H-imidazo[4,5-b]pyridin-3-yl)-2,3-dihydro-1H-inden-1-yl)-6-(difluoromethyl)nicotinamide]
22 | 7.56 | 740 | 38.1 | 10.5 | – | – | – | COc1ccc(C(=O)N[C@H]2CCc3cc(-n4c(-c5cccnc5N)nc5ccc(-n6cccn6)nc54)ccc32)cc1 [Compound 12, (S)—N-(5-(2-(2-aminopyridin-3-yl)-5-(1H-pyrazol-1-yl)-3H-imidazo[4,5-b]pyridin-3-yl)-2,3-dihydro-1H-inden-1-yl)-4-methoxybenzamide]
23 | 45.6 | 713 | 594 | 112 | – | – | – | Nc1ncccc1-c1nc2ccc(-n3cccn3)nc2n1-c1ccc2c(c1)CC[C@@H]2NC(=O)c1ccc(O)c(O)c1 [Compound 323]
24 | 2.84 | 631 | 40.7 | 14.4 | – | – | – | Nc1ncccc1-c1nc2ccc(-n3cccn3)nc2n1-c1ccc2c(c1)CC[C@@H]2NC(=O)c1ccc(O)cc1 [Compound 42, (S)—N-(5-(2-(2-aminopyridin-3-yl)-5-(1H-pyrazol-1-yl)-3H-imidazo[4,5-b]pyridin-3-yl)-2,3-dihydro-1H-inden-1-yl)-4-hydroxybenzamide]
25 | 2.75 | 264 | 2.91 | 10.6 | – | – | – | COc1cc(C(=O)N[C@H]2CCc3cc(-n4c(-c5cccnc5N)nc5ccc(-n6cccn6)nc54)ccc32)cc(OC)n1 [Compound 283]
